According to US10071975B2, “Macrocyclic amidinourea derivatives, methods of preparation and uses thereof as chitinase inhibitors” (CYGNET BIOSCIENCES B.V., priority 2013, dated 2018):
In brackets after ≈: the same amount, converted by molar mass.

What was measured:
[1] = target: chitinase enzyme extracted from Trichoderma viride; assay: Chitinase inhibition assay (NP-GlcNAc substrate); type: biochemical
Protocol: Chitinase inhibition assays were conducted against an example of the GH18 family of chitinases, i.e the chitinase enzyme extracted from Trichoderma viride. This enzyme has an high degree of identity compared to chitinase 4 of Candida albicans, and is commercially available from Sigma-Aldrich (catalogue ID: C8241).
The substrate used was the NP-GlcNAc (Sigma-Aldrich, catalogue ID: N9376) dissolved in MES 50 mM at pH6.0; the final concentration was 250 μM. The enzyme was resuspended at 0.11 mg/ml in MES 50 mM at pH 6.0, with a final concentration for the assay of 73 nM diluting with MES 50 mM and BSA 20 μg/ml at pH 6.0. A stock solution of the inhibitors was prepared at 50 mM in DMSO 100%.
The mixture with the inhibitor at various concentrations and the enzyme was prepared directly into the reading plate and left to incubate at room temperature for 20 minutes or three hours. At the end of the incubation times, the substrate was added and the reading was conducted by recording the values up to a maximum time of 10 minutes. The substrate concentration was measured by reading UV absorption at 300 nm (εM^300: 11100), while, the product of hydrolysis were measured at 400 nm (ΔεM^400: 2120). Both IC50 and Ki can be calculated.

[2] = test system: C. tropicalis; assay: Antimicrobial susceptibility testing (microdilution MIC90), C. tropicalis strains; type: cell-based; conditions: Candida tropicalis; C. tropicalis (11 strains tested); 24 h
Protocol: (§1) Sterile plastic microtitration plates containing flat-bottomed wells were used. The plates contained serial dilution of the antifungal agents with a volume of assay medium of 100 μL/well. Two drug-free medium wells were used as sterility and growth controls. The trays were inoculated with 100 μL/well of the final inoculum, with the exception of sterility control wells. […] The microtitration plates were incubated at 37° C. for 24 h. The minimal inhibitory concentrations (MICs) were determined at 24 h both visually and spectrophotometrically measuring the turbidity at 595 nm with a Varian model 1475 spectrophotometer. Results of biological tests are shown in Table 2, biological data are reported as MIC90 that is the minimum concentration required to inhibit the growth of at least the 90% of the strains tested for each species.

[3] = test system: C. glabrata fluconazole resistant strains; assay: microbe, parasite or virus in culture; type: cell-based, Candida glabrata; conditions: Nakaseomyces glabratus, 24 h
[4] = test system: C. albicans; assay: Antimicrobial susceptibility testing (microdilution MIC90), C. albicans strains; type: cell-based; conditions: Candida albicans; C. albicans (22 strains tested); 24 h, visually and spectrophotometrically
Protocol: as §1

[5] = test system: C. krusei; assay: Antimicrobial susceptibility testing (microdilution MIC90), C. krusei strains; type: cell-based, Candida krusei; conditions: Pichia kudriavzevii; C. krusei (13 strains tested); 24 h; read-out: MIC90
Protocol: as §1

[6] = test system: C. parapsilosis; assay: Antimicrobial susceptibility testing (microdilution MIC90), C. parapsilosis strains; type: cell-based, Candida parapsilosis; conditions: Lodderomyces parapsilosis; C. parapsilosis (24 strains tested); 24 h
Protocol: as §1

[7] = test system: C. albicans fluconazole resistant strains; assay: microbe, parasite or virus in culture; type: cell-based; conditions: Candida albicans, 24 h
[8] = test system: C. kefyr; assay: Antimicrobial susceptibility testing (microdilution MIC90), C. kefyr strains; type: cell-based, Candida kefyr; conditions: Kluyveromyces marxianus; C. kefyr (10 strains tested); 24 h
Protocol: as §1

[9] = test system: C. glabrata; assay: Antimicrobial susceptibility testing (microdilution MIC90), C. glabrata strains; type: cell-based, Candida glabrata; conditions: Nakaseomyces glabratus; C. glabrata (26 strains tested); 24 h
Protocol: as §1

[10] = test system: C. guilliermondii; assay: Antimicrobial susceptibility testing (microdilution MIC90), C. guilliermondii strains; type: cell-based, Candida guilliermondii; conditions: Meyerozyma guilliermondii; C. guilliermondii (10 strains tested); 24 h
Protocol: as §1

[11] = Enz.-inhib. incubation time 20 min
[12] = Enz.-inhib. incubation time 3 h
[13] = strain DSY284, ERG11 Mutation, mean of three measurements
[14] = strain DSY289, ERG11 Mutation (2)
[15] = strain DSY291, ERG11 Mutation (2)
[16] = strain DSY292, ERG11 Mutation (3)
[17] = strain DSY751, ↑MDR1, ERG11 Mutation

CCNC(=N)NCCCCCCN1CCCCCCCCNC(=N)NC1=O [Compound 38, 1-ethyl-3-[6-(4-imino-2-oxo-1,3,5-triazacyclotridec-1-yl)hexyl]guanidine]
IC50 [1, 11]: 508 µM
Ki [1, 11]: 164 µM
IC50 [1, 12]: 140 µM
Ki [1, 12]: 45.3 µM

C/C=C/CNC(=N)NCCCCCCCCN1CCCCCOC(=O)CCNC(=N)NC1=O [Example 19, 1-[(E)-but-2-enyl]-3-[8-(6-imino-2,8-dioxo-1-oxa-5,7,9-triazacyclotetradec-9-yl)octyl]guanidine]
MIC90 [2]: 32 µg/mL (≈ 68.7 µM)
MIC ([3]; strain DSY530, ↑CDR1): 64 µg/mL (≈ 137 µM)
MIC ([3]; strain DSY754, ↑CDR1): 64 µg/mL (≈ 137 µM)
MIC ([3]; strain DSY756, ↑CDR1-CDR2-SNQ2): 128 µg/mL (≈ 275 µM)
MIC ([3]; strain DSY2254, ↑CDR1-CDR2): 128 µg/mL (≈ 275 µM)
MIC ([3]; strain DSY2271, ↑CDR2): 64 µg/mL (≈ 137 µM)
MIC90 [4]: 32 µg/mL (≈ 68.7 µM)
MIC90 [5]: 64 µg/mL (≈ 137 µM)
MIC90 [6]: 32 µg/mL (≈ 68.7 µM)
MIC [7, 13]: 16 µg/mL (≈ 34.4 µM)
MIC [7, 14]: 8 µg/mL (≈ 17.2 µM)
MIC [7, 15]: 8 µg/mL (≈ 17.2 µM)
MIC [7, 16]: 16 µg/mL (≈ 34.4 µM)
MIC ([7]; strain DSY296, ERG11 Mutation): 16 µg/mL (≈ 34.4 µM)
MIC ([7]; strain DSY348, ERG11 Mutation): 8 µg/mL (≈ 17.2 µM)
MIC ([7]; strain DSY732, ↑CDR1-CDR2): 8 µg/mL (≈ 17.2 µM)
MIC ([7]; strain DSY735, ↑CDR1-CDR2): 8 µg/mL (≈ 17.2 µM)
MIC ([7]; strain DSY750, ↑MDR1): 16 µg/mL (≈ 34.4 µM)
MIC [7, 17]: 16 µg/mL (≈ 34.4 µM)
MIC ([7]; strain DSY775, ERG11 Mutation): 16 µg/mL (≈ 34.4 µM)
MIC ([7]; strain DSY2323, ↑CDR2-MDR1): 16 µg/mL (≈ 34.4 µM)
MIC90 [8]: 32 µg/mL (≈ 68.7 µM)
MIC90 [9]: 64 µg/mL (≈ 137 µM)
MIC90 [10]: 32 µg/mL (≈ 68.7 µM)

C[C@@H](c1ncncc1F)[C@](O)(Cn1cncn1)c1ccc(F)cc1F [VOR, Voriconazole, reference compound]
MIC ([3]; strain DSY530, ↑CDR1): 0.5 µg/mL (≈ 1.43 µM)
MIC ([3]; strain DSY754, ↑CDR1): 2 µg/mL (≈ 5.73 µM)
MIC ([3]; strain DSY756, ↑CDR1-CDR2-SNQ2): 4 µg/mL (≈ 11.5 µM)
MIC ([3]; strain DSY2254, ↑CDR1-CDR2): 2 µg/mL (≈ 5.73 µM)
MIC [7, 13]: 4 µg/mL (≈ 11.5 µM)
MIC [7, 14]: 8 µg/mL (≈ 22.9 µM)
MIC [7, 15]: 0.03 µg/mL (≈ 0.0859 µM)
MIC [7, 16]: 2 µg/mL (≈ 5.73 µM)
MIC ([7]; strain DSY296, ERG11 Mutation): 8 µg/mL (≈ 22.9 µM)
MIC ([7]; strain DSY348, ERG11 Mutation): 0.25 µg/mL (≈ 0.716 µM)
MIC ([7]; strain DSY732, ↑CDR1-CDR2): 0.25 µg/mL (≈ 0.716 µM)
MIC ([7]; strain DSY735, ↑CDR1-CDR2): 2 µg/mL (≈ 5.73 µM)
MIC ([7]; strain DSY750, ↑MDR1): 0.016 µg/mL (≈ 0.0458 µM)
MIC [7, 17]: 0.25 µg/mL (≈ 0.716 µM)
MIC ([7]; strain DSY775, ERG11 Mutation): 8 µg/mL (≈ 22.9 µM)
MIC ([7]; strain DSY2323, ↑CDR2-MDR1): 0.25 µg/mL (≈ 0.716 µM)

C/C=C/CNC(=N)NCCCCCCCCN1CCCCCCOc2ccccc2C(c2cn(-c3ccccc3)nn2)NC(=N)NC1=O (stereo not shown) [Example 21]
MIC90 [2]: 64 µg/mL (≈ 97.4 µM)
MIC90 [4]: 32 µg/mL (≈ 48.7 µM)
MIC90 [5]: 128 µg/mL (≈ 195 µM)
MIC90 [6]: 32 µg/mL (≈ 48.7 µM)
MIC90 [8]: 64 µg/mL (≈ 97.4 µM)
MIC90 [9]: 64 µg/mL (≈ 97.4 µM)
MIC90 [10]: 32 µg/mL (≈ 48.7 µM)

C=C(C)CNC(=N)NCCCCCCN1CCCCCCCCNC(=N)NC1=O [Compound 37, 1-[6-(4-imino-2-oxo-1,3,5-triazacyclotridec-1-yl)hexyl]-3-(2-methylprop-2-enyl)guanidine]
IC50 [1, 11]: 276 µM
Ki [1, 11]: 81.4 µM
IC50 [1, 12]: 108 µM
Ki [1, 12]: 34.8 µM

N=C(NCCCCCCCCN1CCCCCCCCNC(=N)NC1=O)NCC1CC1 [Compound 34, 1-(cyclopropylmethyl)-3-[8-(4-imino-2-oxo-1,3,5-triazacyclotridec-1-yl)octyl]guanidine]
IC50 [1, 11]: 252 µM
Ki [1, 11]: 81.4 µM
IC50 [1, 12]: 130 µM
Ki [1, 12]: 42 µM

C/C=C/CNC(=N)NCCCCCCN1CCCCCCCCNC(=N)NC1=O [Compound 36, 1-[(E)-but-2-enyl]-3-[6-(4-imino-2-oxo-1,3,5-triazacyclotridec-1-yl)hexyl]guanidine]
IC50 [1, 12]: 111 µM
Ki [1, 12]: 35.8 µM
